In US20250312469A1 (CANGET BIOTEKPHARMA, priority 2024, published 2025):
Where two headings read alike, the source gives them in different places. Marks after values point to notes of the source that are not given here.

[1] = Female, 4.69→ 2 mg/kg/wk, Day 15
[2] = female rats, 4.69→2 mg/kg/wk, Day 15
[3] = female rats, Group 3, 3.75/2.5 mg/kg/wk oral, Day 15
[4] = female rats, Group 4, 4.69/2 mg/kg/wk oral, Day 15
[5] = male rats, 4.69→2 mg/kg/wk, Day 15, 2 animals
[6] = male rats, Group 2, 3 mg/kg/wk, Day 15

SMILES: CCC1(O)C(=O)OCc2c1cc1n(c2=O)Cc2cc3cc4c(cc3nc2-1)OCO4 (centres unmarked) [FL118]
- decrease of body weight, males, Day 14 (3 mg/kg/wk): 18.15%
- decrease of body weight, males, Day 14 (3.75→2.5 mg/kg/wk): 17.41%
- mortality (4.69 (day 1) and 2 mg/kg/wk (day 8)): two male mice died on day 6 and day 12
- decrease of body weight, males, Day 14 (4.69→2 mg/kg/wk): 47.53%
- #LYMP, percent difference in mean values from concurrent controls [1]: −37.76%
- WBC, percent difference in mean values from concurrent controls [1]: −33.69%
- WBC, percent difference in mean values from concurrent controls (Male, 3 mg/kg/wk, Day 15): −16.11%
- WBC, percent difference in mean values from concurrent controls (Male, 3.75→ 2.5 mg/kg/wk, Day 15): −11.98%
- #LYMP, percent difference in mean values from concurrent controls (Male, 4.69→ 2 mg/kg/wk, Day 15): −57.17%
- WBC, percent difference in mean values from concurrent controls (Male, 4.69→ 2 mg/kg/wk, Day 15): −52.17%
- ALT, percent difference in mean values from concurrent controls [2]: 122%
- sGLU, percent difference in mean values from concurrent controls [2]: −19.47%
- #BASO, basophils, absolute, Mean [3]: 0.01 10^3/μL
- #EOS, eosinophils, absolute, Mean [3]: 0.07 10^3/μL
- #LYMP, lymphocytes, absolute, Mean [3]: 5.87 10^3/μL
- #MONO, monocytes, absolute, Mean [3]: 0.17 10^3/μL
- #NEUT, neutrophils, absolute, Mean [3]: 0.87 10^3/μL
- % BASO, basophils, percent, Mean [3]: 0.2%
- % EOS, eosinophils, percent, Mean [3]: 1.0%
- % LYMP, lymphocytes, percent, Mean [3]: 83.5%
- % MONO, monocytes, percent, Mean [3]: 2.4%
- % NEUT, neutrophils, percent, Mean [3]: 12.1%
- % RET, reticulocytes, percent, Mean [3]: 5.05%
- ALB, albumin, Mean [3]: 37.5 g/L
- ALP, alkaline phosphatase, Mean [3]: 83 U/L
- ALT, alanine aminotransferase, Mean [3]: 33 U/L
- AST, aspartate aminotransferase, Mean [3]: 89 U/L
- BIL-T, total bilirubin, Mean [3]: 1.59 µmol/L
- CK, creatine kinase, Mean [3]: 247 U/L
- CRE, creatinine, Mean [3]: 24 µmol/L
- Ca, calcium, Mean [3]: 2.42 mmol/L
- GLB, globulin, Mean [3]: 23.0 g/L
- HCT, hematocrit, Mean [3]: 19.8%
- HGB, hemoglobin, Mean [3]: 13.2 g/dL
- K, potassium, Mean [3]: 4.3 mmol/L
- MCH, mean corpuscular hemoglobin, Mean [3]: 19.3 pg
- MCHC, mean corpuscular hemoglobin concentration, Mean [3]: 33.3 g/dL
- MCV, mean corpuscular volume, Mean [3]: 58.0 fL
- MPV, mean platelet volume, Mean [3]: 6.8 fL
- Na, sodium, Mean [3]: 142 mmol/L
- P, inorganic phosphorus, Mean [3]: 2.20 mmol/L
- PLT, platelet count, Mean [3]: 1295 10^3/μL
- RBC, red blood cell, Mean [3]: 6.88 10^6/μL
- RDW, RBC distribution width, Mean [3]: 12.9* %
- TCHO, total cholesterol, Mean [3]: 1.70 mmol/L
- TG, triglyceride, Mean [3]: 0.26 mmol/L
- UREA, urea, Mean [3]: 6.29 mmol/L
- WBC, white blood cell, Mean [3]: 7.03 10^3/μL
- sGLU, glucose, Mean [3]: 9.43 mmol/L
- #BASO, basophils, absolute, Mean [4]: 0.01 10^3/μL
- #EOS, eosinophils, absolute, Mean [4]: 0.05 10^3/μL
- #LYMP, lymphocytes, absolute, Mean [4]: 4.03 10^3/μL
- #MONO, monocytes, absolute, Mean [4]: 0.13 10^3/μL
- #NEUT, neutrophils, absolute, Mean [4]: 0.62 10^3/μL
- % BASO, basophils, percent, Mean [4]: 0.1%
- % EOS, eosinophils, percent, Mean [4]: 1.0%
- % LYMP, lymphocytes, percent, Mean [4]: 82.7%
- % MONO, monocytes, percent, Mean [4]: 2.9%
- % NEUT, neutrophils, percent, Mean [4]: 12.7%
- % RET, reticulocytes, percent, Mean [4]: 4.79%
- ALB, albumin, Mean [4]: 36.6 g/L
- ALP, alkaline phosphatase, Mean [4]: 88 U/L
- ALT, alanine aminotransferase, Mean [4]: 75 U/L
- AST, aspartate aminotransferase, Mean [4]: 222 U/L
- BIL-T, total bilirubin, Mean [4]: 2.66 µmol/L
- CK, creatine kinase, Mean [4]: 427 U/L
- CRE, creatinine, Mean [4]: 24 µmol/L
- Ca, calcium, Mean [4]: 2.37 mmol/L
- GLB, globulin, Mean [4]: 22.0 g/L
- HCT, hematocrit, Mean [4]: 40.0%
- HGB, hemoglobin, Mean [4]: 13.6 g/dL
- K, potassium, Mean [4]: 4.6 mmol/L
- MCH, mean corpuscular hemoglobin, Mean [4]: 19.6 pg
- MCHC, mean corpuscular hemoglobin concentration, Mean [4]: 33.8 g/dL
- MCV, mean corpuscular volume, Mean [4]: 57.8 fL
- MPV, mean platelet volume, Mean [4]: 6.7 fL
- Na, sodium, Mean [4]: 142 mmol/L
- P, inorganic phosphorus, Mean [4]: 1.92 mmol/L
- PLT, platelet count, Mean [4]: 1278 10^3/μL
- RBC, red blood cell, Mean [4]: 6.94 10^6/μL
- RDW, RBC distribution width, Mean [4]: 13.7* %
- TCHO, total cholesterol, Mean [4]: 1.37 mmol/L
- TG, triglyceride, Mean [4]: 0.29 mmol/L
- TP, total protein, Mean [4]: 58.5 g/L
- UREA, urea, Mean [4]: 9.54 mmol/L
- WBC, white blood cell, Mean [4]: 4.85 10^3/μL
- sGLU, glucose, Mean [4]: 8.25 mmol/L
- ALT, percent difference in mean values from concurrent controls (male rats, 3 mg/kg/wk, Day 15): 19%
- ALT, percent difference in mean values from concurrent controls (male rats, 3.75→2.5 mg/kg/wk, Day 15): 34%
- ALT, percent difference in mean values from concurrent controls [5]: 275%
- sGLU, percent difference in mean values from concurrent controls [5]: −59.96%
- #BASO Mean [6]: 0.02 10^3/μL
- #EOS Mean [6]: 0.06 10^3/μL
- #LYMP Mean [6]: 7.94 10^3/μL
- #MONO Mean [6]: 0.21 10^3/μL
- #NEUT Mean [6]: 0.72 10^3/μL
- #RET Mean [6]: 337.2 10^9/L
- % BASO Mean [6]: 0.2%
- % EOS Mean [6]: 0.7%
- % LYMP Mean [6]: 88.2%
- % MONO Mean [6]: 2.5%
- % NEUT Mean [6]: 7.9%
- % RET Mean [6]: 4.68%
- HCT Mean [6]: 42.1* %
- MCH Mean [6]: 19.2 pg
- MCHC Mean [6]: 32.8 g/dL
- MCV Mean [6]: 58.3 fL
- MPV Mean [6]: 6.6 fL
- PLT Mean [6]: 1172 10^3/μL
- RBC Mean [6]: 7.22 10^6/μL
- RDW Mean [6]: 13.5** %
- WBC Mean [6]: 9.01 10^3/μL
- #BASO % Diff (male rats, Group 2, 3 mg/kg/wk, Day 15, vs Group 1): −25.00%
